Results reported in patent publication US10870647B2, “Imidazopyridine derivative, method for preparing same, and pharmaceutical composition containing same as active ingredient for preventing or treating cancer” (DAEGU-GYEONGBUK MEDICAL INNOVATION FOUNDATION, priority 2016, dated 2020).

Assays:
[1] = biological target: T1, scanMAX Kinase assay panel (Homo sapiens, UniProt Q9BZL6); assay: Kinase selectivity, scanMAX Kinase assay panel (DiscoverX), % control at 1 uM; type: binding; settings: PRKD2; 1 uM; read-out: Percent Control (%)
T1 construct: purchased DiscoverX
T1 sequence (Q9BZL6 1-878): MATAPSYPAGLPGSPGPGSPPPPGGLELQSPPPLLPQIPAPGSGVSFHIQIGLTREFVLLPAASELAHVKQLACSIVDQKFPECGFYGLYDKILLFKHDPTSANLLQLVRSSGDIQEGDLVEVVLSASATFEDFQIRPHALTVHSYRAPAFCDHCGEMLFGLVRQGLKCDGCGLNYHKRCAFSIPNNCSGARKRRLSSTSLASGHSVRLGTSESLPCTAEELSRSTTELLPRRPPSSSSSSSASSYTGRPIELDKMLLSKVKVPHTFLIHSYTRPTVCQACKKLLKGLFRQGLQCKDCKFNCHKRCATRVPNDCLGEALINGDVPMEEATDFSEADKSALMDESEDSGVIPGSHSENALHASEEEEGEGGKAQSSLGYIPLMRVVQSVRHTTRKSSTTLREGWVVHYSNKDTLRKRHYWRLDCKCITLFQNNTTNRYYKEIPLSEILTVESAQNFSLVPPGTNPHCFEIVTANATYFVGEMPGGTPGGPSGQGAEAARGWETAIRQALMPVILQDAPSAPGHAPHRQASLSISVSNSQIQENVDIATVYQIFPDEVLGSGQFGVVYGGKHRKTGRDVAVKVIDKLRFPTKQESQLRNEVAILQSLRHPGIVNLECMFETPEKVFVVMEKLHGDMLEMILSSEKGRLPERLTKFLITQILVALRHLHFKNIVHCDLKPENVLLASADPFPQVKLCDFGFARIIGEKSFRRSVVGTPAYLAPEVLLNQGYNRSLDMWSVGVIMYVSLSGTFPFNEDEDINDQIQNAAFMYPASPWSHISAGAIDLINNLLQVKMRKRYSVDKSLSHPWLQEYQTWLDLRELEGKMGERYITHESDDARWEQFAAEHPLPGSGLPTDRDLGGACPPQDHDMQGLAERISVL
How it was run: (§1)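 Compounds were tested at 1 uM in DMSO against each enzyme in the panel. Percent control was calculated as (compound − positive control)/(negative control − positive control) × 100, and a compound was scored active on a kinase when this value fell below 35.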

[2] = biological target: T2, scanMAX Kinase assay panel (Homo sapiens, UniProt Q99683); assay: as above; type: binding; settings: ASK1; 1 uM; read-out: Percent Control (%)
T2 construct: purchased DiscoverX
T2 sequence (Q99683 1-1374): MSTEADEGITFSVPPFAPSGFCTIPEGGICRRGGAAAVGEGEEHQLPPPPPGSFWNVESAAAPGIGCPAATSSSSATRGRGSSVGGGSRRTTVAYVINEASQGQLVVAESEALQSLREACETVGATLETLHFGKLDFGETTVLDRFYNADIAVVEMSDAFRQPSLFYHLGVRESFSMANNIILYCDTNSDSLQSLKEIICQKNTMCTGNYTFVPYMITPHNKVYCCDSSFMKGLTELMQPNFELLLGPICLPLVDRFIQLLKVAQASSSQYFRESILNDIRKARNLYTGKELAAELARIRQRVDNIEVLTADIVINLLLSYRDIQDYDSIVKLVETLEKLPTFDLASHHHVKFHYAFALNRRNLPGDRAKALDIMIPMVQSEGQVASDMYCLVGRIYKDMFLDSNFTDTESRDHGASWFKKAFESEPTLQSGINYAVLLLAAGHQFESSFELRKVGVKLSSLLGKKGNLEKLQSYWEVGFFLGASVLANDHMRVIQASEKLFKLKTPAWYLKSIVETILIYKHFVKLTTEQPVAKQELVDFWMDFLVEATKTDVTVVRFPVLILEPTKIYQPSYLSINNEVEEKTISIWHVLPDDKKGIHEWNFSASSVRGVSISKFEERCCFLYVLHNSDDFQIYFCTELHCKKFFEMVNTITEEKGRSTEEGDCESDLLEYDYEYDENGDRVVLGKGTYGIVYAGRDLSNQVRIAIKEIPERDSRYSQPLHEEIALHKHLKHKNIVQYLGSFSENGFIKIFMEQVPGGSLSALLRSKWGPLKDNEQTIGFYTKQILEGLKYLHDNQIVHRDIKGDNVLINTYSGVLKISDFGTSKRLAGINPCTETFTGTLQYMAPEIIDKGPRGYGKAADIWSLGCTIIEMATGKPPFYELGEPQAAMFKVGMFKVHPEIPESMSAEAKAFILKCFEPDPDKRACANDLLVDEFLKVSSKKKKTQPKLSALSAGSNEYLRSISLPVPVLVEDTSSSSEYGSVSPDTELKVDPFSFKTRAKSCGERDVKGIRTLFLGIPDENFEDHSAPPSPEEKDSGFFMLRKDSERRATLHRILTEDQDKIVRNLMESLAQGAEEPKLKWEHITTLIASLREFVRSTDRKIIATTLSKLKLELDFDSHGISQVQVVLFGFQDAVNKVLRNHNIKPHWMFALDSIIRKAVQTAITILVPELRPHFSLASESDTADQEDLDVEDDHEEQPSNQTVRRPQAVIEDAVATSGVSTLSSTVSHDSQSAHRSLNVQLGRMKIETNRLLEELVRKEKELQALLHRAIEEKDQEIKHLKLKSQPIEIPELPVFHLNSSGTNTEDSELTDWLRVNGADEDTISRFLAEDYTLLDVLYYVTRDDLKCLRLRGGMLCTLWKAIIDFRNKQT
How it was run: as §1

| SMILES | remaining binding at 1 µM [1] | remaining binding at 1 µM [2] |
| --- | --- | --- |
| Cc1ccc(NC(=O)C2(C(=O)Nc3ccc(F)cc3)CC2)cc1C#Cc1cnc2c(Nc3cnn(C(C)C)c3)cccn12 [Example 78] | 95% | 100% |
| Cc1cn(-c2cc(NC(=O)c3ccc(C)c(C#Cc4cnc5c(Nc6cnn(C)c6)cccn45)c3)cc(C(F)(F)F)c2)cn1 [Example 12, 4-methyl-N-(3-(4-methyl-1H-imidazol-1-yl)-5-(trifluoromethyl)phenyl)-3-((8-((1-methyl-1H-pyrazol-4-yl)amino)imidazo[1,2-a]pyridin-3-yl)ethynyl)benzamide] | 98% | 95% |
| Cc1ccc(C(=O)Nc2ccc(CN3CCN(C)CC3)c(C(F)(F)F)c2)cc1C#Cc1cnc2c(Nc3cnn(C)c3)cccn12 [Example 1, 4-methyl-3-((8-((1-methyl-1H-pyrazol-4-yl)amino)imidazo[1,2-a]pyridin-3-yl)ethynyl)-N-(4-((4-methylpiperazin-1-yl)methyl)-3-(trifluoromethyl)phenyl)benzamide] | 41% | 100% |
